Measured values: patent US20040014676A1, “SRC kinase inhibitors useful for treating osteoporosis” (priority 2001, published 2004)
pIC50: −log10 of the molar value.

target: T1, Src kinase (Homo sapiens, UniProt P12931); experiment: Phosphorylation assay of Src kinase inhibitors (radiometric, 96 well filter plate); format: biochemical; details: IC50, duplicates, tested in the range of 400-0.098 µM; 10 µM peptide substrate (FIYGAFKKKKNH2), 5 µM unlabeled ATP, room temperature 30 min
T1 construct: purchased Upstate Bioteolnology (sic; Upstate Biotechnology); later HMR stock 27597-019E1 #14-117
Method: The present invention provides novel compounds of Formulae I through XVIII discussed above. The following compounds which fall within Formulae I through XVIII are characterized by structure, IUPAC name and activity using phosphorylation assay for protein tyrosine Src kinase.
Phosphorylation Assay of Src Kinase Inhibitors
The activity of Src kinase was measured in a 96 well plate phosphorylation assay where the transfer of gamma phosphate from ATP to peptide substrate was measured radiometrically. […] Ki values were determined experimentally for some of the inhibitors. The phosphocellulose filter plates (Millipore catalog #MAPH NOB) were prewet prior to the phosphorylation assay by addition of 100 1 per well of 30 mM MES buffer+0.4 mg/ml BSA. After a 20-minute incubation, the buffer was removed completely via a Millipore vacuum manifold. The phosphorylation assay was then set up in the filter plates in a total volume per well of 60 1. The 60 1 consisted of compound (see concentration ranges above), a 1:100 dilution of Src kinase (originally Upstate Bioteolnology, #14-117; later HMR stock 27597-019E1) or assay buffer alone (for no enzyme control wells), 10 M peptide substrate (FIYGAFKKKKNH2), 5 M unlabeled ATP and a 1:500 dilution of P-ATP (New England Nuclear, catalog #NEG-602H, 2000 Ci/mmol). The reaction was mixed and incubated at room temperature for 30 min. The kinase reactions were stopped by addition of 150 mM H3PO4 and incubated for 10 minutes. The filter plate wells were filtered and washed seven times with 200 1 per well of 150 mM H3PO4. Finally, the filter plate was placed into a Packard plate adapter (Packard catalog #600517B), 35 1 of Microscint-20 (Packard catalog #6013621) was added to each well, the plate was sealed (TopSeal A sealers; Packard catalog #6005185) and counted on a Packard TopCount.

T1 sequence (P12931 whole entry): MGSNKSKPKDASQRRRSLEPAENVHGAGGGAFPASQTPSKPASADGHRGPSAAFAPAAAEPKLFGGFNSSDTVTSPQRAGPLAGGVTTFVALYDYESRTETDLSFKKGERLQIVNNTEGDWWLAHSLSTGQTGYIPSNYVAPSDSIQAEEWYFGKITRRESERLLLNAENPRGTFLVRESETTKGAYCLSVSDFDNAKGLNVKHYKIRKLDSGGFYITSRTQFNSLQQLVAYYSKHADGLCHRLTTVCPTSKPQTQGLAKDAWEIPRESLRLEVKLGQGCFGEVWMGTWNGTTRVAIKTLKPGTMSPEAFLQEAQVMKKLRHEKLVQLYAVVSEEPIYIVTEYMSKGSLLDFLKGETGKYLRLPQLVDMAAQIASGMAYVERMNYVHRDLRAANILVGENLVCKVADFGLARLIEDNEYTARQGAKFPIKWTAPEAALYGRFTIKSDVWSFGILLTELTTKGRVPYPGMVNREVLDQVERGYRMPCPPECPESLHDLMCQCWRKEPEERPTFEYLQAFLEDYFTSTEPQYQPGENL

| Structure (SMILES) | pIC50 |
| --- | --- |
| NC(=O)CNC(=O)c1cc2ccccc2cc1OCCNC(=O)[C@@H](N)Cc1ccc(O)cc1 [Example 92, 3-[2-[[[1-OXO-2(S)-AMINO-3-HYDROXY- PHENYL)]PROPYL]AMINO]ETHOXY]NAPHTHALENE-2-(N-] | 5.47 |

same assay, conditions: duplicates, tested in the range of 400-0.098 µM; 10 µM peptide substrate (FIYGAFKKKKNH2), 5 µM unlabeled ATP, room temperature 30 min; read-out: IC50

| Structure (SMILES) | pIC50 |
| --- | --- |
| NC(=O)CNC(=O)c1cc2ccccc2cc1OCCCCNC(=O)[C@@H](N)Cc1cccc(F)c1 [Example 59, 3-[4-[[[2(S)-AMINO-3-(3-FLUORO- PHENYL)-1-OXO]PROPYL]AMINO]- BUTOXY]-NAPHTHALENE-2-(N- ACETAMIDO)CARBOXAMIDE] | 6.31 |
| CC(c1ccc(Cl)c(Cl)c1)[C@H](N)C(=O)NCCCCOc1cc2ccccc2cc1C(=O)NCC(N)=O (stereo partly drawn) [Example 60, 3-[4-[[[2(S)-AMINO-3(3,4-DICHLORO- PHENYL)-1-OXO]BUTYL]AMINO]- BUTOXY]-NAPHTHALENE-2-(N- ACETAMIDO)CARBOXAMIDE] | 5.81 |
| NC(=O)CNC(=O)c1cc2ccccc2cc1OCCCCNC(=O)[C@@H](N)Cc1ccc(Br)cc1 [Example 61, 3-[4-[[[1-OXO-2(S)-AMINO-3(4- BROMOPHENYL)]PROPYL]AMINO]- BUTOXY]-NAPHTHALENE-2-(N- ACETAMIDO)CARBOXAMIDE] | 6.30 |
| NC(=O)CNC(=O)c1cc2ccccc2cc1OCCCCNC(=O)[C@@H](N)Cc1ccc(I)cc1 [Example 62, 3-[4-[[[1-OXO-2(S)-AMINO-3(4- IODOPHENYL)]PROPYL]AMINO]- BUTOXY]-NAPHTHALENE-2-(N- ACETAMIDO)CARBOXAMIDE] | 5.20 |
| NC(=O)CNC(=O)c1cc2ccccc2cc1OCCCCNC(=O)[C@H](N)CSCc1ccccc1 [Example 63, 3-[4-[[[1-OXO-2(S)-AMINO- 3(BENZYLMERCAPTO)]PROPYL]- AMINO]BUTOXY]-NAPHTHALENE-2- (N-ACETAMIDO)CARBOXAMIDE] | 5.65 |
| NCC(=O)NCCCCOc1cc2ccccc2cc1C(=O)NCC(N)=O [Example 64, 3-[4-[[(1-OXO-2-AMINO)ETHYL]- AMINO]BUTOXY]-NAPHTHALENE-2- (N-ACETAMIDO)CARBOXAMIDE] | 4.17 |
| C[C@H](N)C(=O)NCCCCOc1cc2ccccc2cc1C(=O)NCC(N)=O [Example 65, 3-[4-[[(1-OXO-2(S)-AMINO)PROPYL]- AMINO]BUTOXY]-NAPHTHALENE-2- (N-ACETAMIDO)CARBOXAMIDE] | 4.00 |
| CC(C)(C)C(=O)NCCCCOc1cc2ccccc2cc1C(=O)NCC(N)=O [Example 66, 3-[4-[[(1-OXO-2,2-DIMETHYL)PROPYL]- AMINO]BUTOXY]-NAPHTHALENE-2- (N-ACETAMIDO)CARBOXAMIDE] | 5.22 |
| CN[C@@H](Cc1ccccc1)C(=O)NCCCCOc1cc2ccccc2cc1C(=O)NCC(N)=O [Example 67, 3-[4-[[(1-OXO-2(S)-METHYLAMINO-3- PHENYL)PROPYL]AMINO]BUTOXY]- NAPHTHALENE-2-(N-ACETAMIDO)- CARBOXAMIDE] | 5.64 |
| CN(C)[C@@H](Cc1ccccc1)C(=O)NCCCCOc1cc2ccccc2cc1C(=O)NCC(N)=O [Example 68] | 4.30 |
| C[N+](C)(C)[C@@H](Cc1ccccc1)C(=O)NCCCCOc1cc2ccccc2cc1C(=O)NCC(N)=O [Example 69] | 4.85 |
| NC(=O)CC[C@H](N)C(=O)NCCCCOc1cc2ccccc2cc1C(=O)NCC(N)=O [Example 70, 3-[4-[[(1-OXO-2(S)-AMINO-4-AMINO- CARBONYL)BUTYL]AMINO]BUTOXY]- NAPHTHALENE-2-(N-ACETAMIDO)- CARBOXAMIDE] | 3.43 |
| NC(=O)CNC(=O)c1cc2ccccc2cc1OCCCCNC(=O)CNCc1cccc2ccccc12 [Example 71] | 5.22 |
| NC(=O)CNC(=O)c1cc2ccccc2cc1OCCCCNC(=O)[C@H](Cc1ccc(O)cc1)NC=O [Example 72, 3-[4-[[[1-OXO-2-(N-FORMYLAMINO)-3- (4-HYDROXYPHENYL)]PROPYL]- (S)AMINO]BUTOXY]-NAPHTHALENE- 2-(N-ACETAMIDO)CARBOXAMIDE] | 5.22 |
| N=C(N)N[C@@H](Cc1ccc(O)cc1)C(=O)NCCCCOc1cc2ccccc2cc1C(=O)NCC(N)=O [Example 73, 3-[4-[[[(1-OXO-2-[(N-AMINOIMINO- METHYL)(S)AMINO]-3-(4-HYDROXY- PHENYL)]PROPYL]AMINO]BUTOXY]- NAPHTHALENE-2-(N-ACETAMIDO)- CARBOXAMIDE] | 5.22 |
| NCC(=O)N[C@@H](Cc1ccc(O)cc1)C(=O)NCCCCOc1cc2ccccc2cc1C(=O)NCC(N)=O [Example 74, 3-[4-[[[(1-OXO-2-[(N-AMINOMETHYL- CARBONYL)(S)AMINO]3-(4-HYDROXY- PHENYL)]PROPYL]AMINO]BUTOXY]- NAPHTHALENE-2-(N-ACETAMIDO)- CARBOXAMIDE] | 4.60 |
| NC(=O)CNC(=O)c1cc2ccccc2cc1OCCCCN1CCC[C@@H](c2ccccc2)[C@H](N)C1=O [Example 76, 3-[4-[(2-OXO-3(R)-AMINO-4(S)- PHENYL)HEXAMETHYLENEIMIN-1- YL]BUTOXY]-NAPHTHALENE-2-(N- ACETAMIDO)CARBOXAMIDE] | 5.22 |
| NC(=O)CNC(=O)c1cc2ccccc2cc1OCCCCN1CCC[C@H](c2ccccc2)[C@H](N)C1=O [Example 77, 3-[4-[(2-OXO-3(R)-AMINO-4(R)- PHENYL)HEXAMETHYLENEIMIN-1- YL]BUTOXY]-NAPHTHALENE-2-(N- ACETAMIDO)CARBOXAMIDE] | 5.22 |
| C[C@H](c1ccc(O)cc1)[C@H](N)C(=O)NCCCCOc1cc2ccccc2cc1C(=O)NCC(N)=O [Example 78, 3-[4-[[[(1-OXO-2-AMINO-3(R)-METHYL- 3-(4-HYDROXY)PHENYL)]PROPYL]- AMINO]BUTOXY]-NAPHTHALENE-2- (N-ACETAMIDO)CARBOXAMIDE] | 5.22 |
| C[C@@H](c1ccc(O)cc1)[C@H](N)C(=O)NCCCCOc1cc2ccccc2cc1C(=O)NCC(N)=O [Example 79, 3-[4-[[[(1-OXO-2(S)-AMINO-3(R)- METHYL-3-(4-HYDROXYPHENYL)]- PROPYL]AMINO]BUTOXY]- NAPHTHALENE-2-(N-ACETAMIDO)- CARBOXAMIDE] | 5.22 |
| NC(=O)CNC(=O)[C@@H](Cc1ccccc1)NCCCCCNC(=O)[C@H](N)Cc1csc2ccccc12 [Example 80, N-[((R)BENZYL)[(AMINO)(CARBONYL) (METHYL)(AMINO)(CARBONYL)]- METHYL]-5-[[N-[1-OXO-2- AMINO-3-(R)(BENZOTHIOPHEN-3-YL)]PROPYL]AMINO]PENTYLAMINE] | 5.22 |
| NC(=O)CNC(=O)[C@H](Cc1ccccc1)NCCCCCNC(=O)[C@H](N)Cc1csc2ccccc12 [Example 81, N-[((S)BENZYL)[(AMINO)(CARBONYL)- (METHYL)(AMINO)(CARBONYL)]- METHYL]-5-[[N-[1-OXO-2-AMINO-3- (R)(BENZOTHIOPHEN-3- YL)]PROPYL]AMINO]PENTYLAMINE] | 5.22 |
| NC(=O)CNC(=O)[C@@H](Cc1cccc2ccccc12)NCCCCCNC(=O)[C@H](N)Cc1csc2ccccc12 [Example 82, N-[((R)NAPHTH-1-YL)[(AMINO)- (CARBONYL)(METHYL)(AMINO)- (CARBONYL)]METHYL]-5-[N-[[N-[1- OXO-2-AMINO-3-(R)(BENZOTHIOPHEN- 3-YL)]PROPYL]AMINO]PENTYLAMINE] | 5.22 |
| NC(=O)CNC(=O)c1cc2ccccc2cc1C(=O)NCCCNC(=O)[C@@H](N)Cc1ccc(O)cc1 [Example 89, 3-[[[3-[[[1-OXO-2(S)-AMINO-3- HYDROXYPHENYL)]PROPYL]AMINO]- PROPYL]AMINO]CARBONYL]- NAPHTHALENE-2-ACETAMIDO)- CARBOXAMID] | 3.60 |
| NC(=O)CNC(=O)c1cc2ccccc2cc1NC(=O)CCCNC(=O)[C@@H](N)Cc1ccc(O)cc1 [Example 90, 3-[[[3-[[[1-OXO-2(S)-AMINO-3- HYDROXYPHENYL)]PROPYL]AMINO]- PROPYL]CARBONYL]AMINO]- NAPHTHALENE-2-ACETAMIDO)- CARBOXAMID] | 3.68 |
| NC(=O)CNC(=O)c1cc2ccccc2cc1OCCCNC(=O)[C@@H](N)Cc1ccc(O)cc1 [Example 93, 3-[5-[[[1-OXO-2(S)-AMINO-3-(4- HYDROXYPHENYL)]PROPYL]AMINO]- PROPYLOXY]NAPHTHALENE-2-(N- ACETAMIDO)CARBOXAMIDE] | 4.35 |
| NC(=O)CNC(=O)c1cc2ccccc2cc1OCCCCCNC(=O)[C@@H](N)Cc1ccc(O)cc1 [Example 94, 3-[5-[[[1-OXO-2(S)-AMINO-3-(4- HYDROXYPHENYL)]PROPYL]AMINO]- PENTOXY]NAPHTHALENE-2-(N- ACETAMIDO)CARBOXAMIDE] | 5.18 |
| NC(=O)CNC(=O)c1cc2ccccc2cc1OCCCCCCNC(=O)[C@@H](N)Cc1ccc(O)cc1 [Example 95, 3-[6-[[[1-OXO-2(S)-AMINO-3-(4- HYDROXYPHENYL)]PROPYL]AMINO]- HEXOXY]NAPHTHALENE-2-(N- ACETAMIDO)CARBOXAMIDE] | 5.15 |
| NC(=O)CNC(=O)c1cc2ccccc2cc1OCc1cccc(NC(=O)[C@@H](N)Cc2ccc(O)cc2)c1 [Example 96, 3-[3-[[[1-OXO-2(S)-AMINO-3-(4- HYDROXYPHENYL)]PROPYL]AMINO]- BENZYLOXY]NAPHTHALENE-2-(N- ACETAMIDO)CARBOXAMIDE] | 5.15 |
